Measured values: US10189816B2, “Substituted pyridines as inhibitors of human immunodeficiency virus replication” (priority 2015, dated 2019)
pEC50: −log10 of the molar value. Where two headings read alike, the source gives them in different places.

Test system: NL-RLuc virus
Test: Inhibition of HIV replication (NL-RLuc reporter virus in MT-2 cells, luciferase readout)
Type: cell-based
Details: Human immunodeficiency virus 1, MT2, 120 h; for pEC50: read-out: Activity; for EC50: read-out: EC50 μM
Summary of the method: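 Antiviral EC50 came from luciferase signal after 5-day multicycle replication of NL-RLuc virus in MT-2 cells with serially diluted compound (RPMI 1640, 10% heat-inactivated FBS), fitted by the median effect equation over at least 2 experiments.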

Compound: CCOc1cccc(CN2CCc3cc(-c4c(C)nc(C)c([C@H](OC(C)(C)C)C(=O)O)c4N4CCC(C)(C)CC4)ccc3C2)c1 [Compound 103, (S)-2-(tert-butoxy)-2-(4-(4,4-dimethylpiperidin-1-yl)-5-(2-(3-ethoxybenzyl)-1,2,3,4-tetrahydroisoquinolin-6-yl)-2,6-dimethylpyridin-3-yl)acetic acid]
- pEC50: > 7.00
- EC50: 0.012 µM

Compound: Cc1nc(C)c([C@H](OC(C)(C)C)C(=O)O)c(N2CCC(C)(C)CC2)c1-c1ccc2c(c1)CCN(Cc1ccc(OC(F)(F)F)c(Cl)c1)C2 [Compound 104, (S)-2-(tert-butoxy)-2-(5-(2-(3-chloro-4-(trifluoromethoxy)benzyl)-1,2,3,4-tetrahydroisoquinolin-6-yl)-4-(4,4-dimethylpiperidin-1-yl)-2,6-dimethylpyridin-3-yl)acetic acid]
- pEC50: > 7.00

Compound: Cc1nc(C)c([C@H](OC(C)(C)C)C(=O)O)c(N2CCC(C)(C)CC2)c1-c1ccc2c(c1)CCN(Cc1ccc(OC(F)F)cc1F)C2 [Compound 105, (S)-2-(tert-butoxy)-2-(5-(2-(4-(difluoromethoxy)-2-fluorobenzyl)-1,2,3,4-tetrahydroisoquinolin-6-yl)-4-(4,4-dimethylpiperidin-1-yl)-2,6-dimethylpyridin-3-yl)acetic acid]
- pEC50: > 7.00

Compound: COc1cc(F)c(CN2CCc3cc(-c4c(C)nc(C)c([C@H](OC(C)(C)C)C(=O)O)c4N4CCC(C)(C)CC4)ccc3C2)c(F)c1 [Compound 106, (S)-2-(tert-butoxy)-2-(5-(2-(2,6-difluoro-4-methoxybenzyl)-1,2,3,4-tetrahydroisoquinolin-6-yl)-4-(4,4-dimethylpiperidin-1-yl)-2,6-dimethylpyridin-3-yl)acetic acid]
- pEC50: > 7.00

Compound: COc1cc(F)cc(F)c1CN1CCc2cc(-c3c(C)nc(C)c([C@H](OC(C)(C)C)C(=O)O)c3N3CCC(C)(C)CC3)ccc2C1 [Compound 107, (S)-2-(tert-butoxy)-2-(5-(2-(2,4-difluoro-6-methoxybenzyl)-1,2,3,4-tetrahydroisoquinolin-6-yl)-4-(4,4-dimethylpiperidin-1-yl)-2,6-dimethylpyridin-3-yl)acetic acid]
- pEC50: > 7.00

Compound: Cc1nc(C)c([C@H](OC(C)(C)C)C(=O)O)c(N2CCC(C)(C)CC2)c1-c1ccc2c(c1)CCN(Cc1ccc(OC(F)(F)F)c(F)c1)C2 [Compound 108, (S)-2-(tert-butoxy)-2-(4-(4,4-dimethylpiperidin-1-yl)-5-(2-(3-fluoro-4-(trifluoromethoxy)benzyl)-1,2,3,4-tetrahydroisoquinolin-6-yl)-2,6-dimethylpyridin-3-yl)acetic acid]
- pEC50: > 7.00

Compound: COc1cc(C(F)(F)F)ccc1CN1CCc2cc(-c3c(C)nc(C)c([C@H](OC(C)(C)C)C(=O)O)c3N3CCC(C)(C)CC3)ccc2C1 [Compound 109, (S)-2-(tert-butoxy)-2-(4-(4,4-dimethylpiperidin-1-yl)-5-(2-(2-methoxy-4-(trifluoromethyl)benzyl)-1,2,3,4-tetrahydroisoquinolin-6-yl)-2,6-dimethylpyridin-3-yl)acetic acid]
- pEC50: > 7.00

Compound: Cc1nc(C)c([C@H](OC(C)(C)C)C(=O)O)c(N2CCC(C)(C)CC2)c1-c1ccc2c(c1)CCN(Cc1cccc(OC(F)(F)F)c1)C2 [Compound 110, (S)-2-(tert-butoxy)-2-(4-(4,4-dimethylpiperidin-1-yl)-2,6-dimethyl-5-(2-(3-(trifluoromethoxy)benzyl)-1,2,3,4-tetrahydroisoquinolin-6-yl)pyridin-3-yl)acetic acid]
- pEC50: > 7.00
- EC50: 0.008 µM

Compound: Cc1nc(C)c([C@H](OC(C)(C)C)C(=O)O)c(N2CCC(C)(C)CC2)c1-c1ccc2c(c1)CCN(Cc1cc(F)cc(OC(F)(F)F)c1)C2 [Compound 111, (S)-2-(tert-butoxy)-2-(4-(4,4-dimethylpiperidin-1-yl)-5-(2-(3-fluoro-5-(trifluoromethoxy)benzyl)-1,2,3,4-tetrahydroisoquinolin-6-yl)-2,6-dimethylpyridin-3-yl)acetic acid]
- pEC50: > 7.00

Compound: COc1cc(CN2CCc3cc(-c4c(C)nc(C)c([C@H](OC(C)(C)C)C(=O)O)c4N4CCC(C)(C)CC4)ccc3C2)cc(C(F)(F)F)c1 [Compound 112, (S)-2-(tert-butoxy)-2-(4-(4,4-dimethylpiperidin-1-yl)-5-(2-(3-methoxy-5-(trifluoromethyl)benzyl)-1,2,3,4-tetrahydroisoquinolin-6-yl)-2,6-dimethylpyridin-3-yl)acetic acid]
- pEC50: > 7.00

Compound: Cc1nc(C)c([C@H](OC(C)(C)C)C(=O)O)c(N2CCC(C)(C)CC2)c1-c1ccc2c(c1)CCN(Cc1cc(Cl)cc(OC(F)(F)F)c1)C2 [Compound 113, (S)-2-(tert-butoxy)-2-(5-(2-(3-chloro-5-(trifluoromethoxy)benzyl)-1,2,3,4-tetrahydroisoquinolin-6-yl)-4-(4,4-dimethylpiperidin-1-yl)-2,6-dimethylpyridin-3-yl)acetic acid]
- pEC50: > 7.00

Compound: Cc1nc(C)c([C@H](OC(C)(C)C)C(=O)O)c(N2CCC(C)(C)CC2)c1-c1ccc2c(c1)CCN(Cc1ccccc1OC(F)F)C2 [Compound 114, (S)-2-(tert-butoxy)-2-(5-(2-(2-(difluoromethoxy)benzyl)-1,2,3,4-tetrahydroisoquinolin-6-yl)-4-(4,4-dimethylpiperidin-1-yl)-2,6-dimethylpyridin-3-yl)acetic acid]
- pEC50: > 7.00

Compound: COc1cccc(F)c1CN1CCc2cc(-c3c(C)nc(C)c([C@H](OC(C)(C)C)C(=O)O)c3N3CCC(C)(C)CC3)ccc2C1 [Compound 115, (S)-2-(tert-butoxy)-2-(4-(4,4-dimethylpiperidin-1-yl)-5-(2-(2-fluoro-6-methoxybenzyl)-1,2,3,4-tetrahydroisoquinolin-6-yl)-2,6-dimethylpyridin-3-yl)acetic acid]
- pEC50: > 7.00

Compound: COc1ccc(F)c(CN2CCc3cc(-c4c(C)nc(C)c([C@H](OC(C)(C)C)C(=O)O)c4N4CCC(C)(C)CC4)ccc3C2)c1 [Compound 116, (S)-2-(tert-butoxy)-2-(4-(4,4-dimethylpiperidin-1-yl)-5-(2-(2-fluoro-5-methoxybenzyl)-1,2,3,4-tetrahydroisoquinolin-6-yl)-2,6-dimethylpyridin-3-yl)acetic acid]
- pEC50: > 7.00
- EC50: 0.002 µM

Compound: COc1cc(F)ccc1CN1CCc2cc(-c3c(C)nc(C)c([C@H](OC(C)(C)C)C(=O)O)c3N3CCC(C)(C)CC3)ccc2C1 [Compound 117, (S)-2-(tert-butoxy)-2-(4-(4,4-dimethylpiperidin-1-yl)-5-(2-(4-fluoro-2-methoxybenzyl)-1,2,3,4-tetrahydroisoquinolin-6-yl)-2,6-dimethylpyridin-3-yl)acetic acid]
- pEC50: > 7.00

Compound: Cc1nc(C)c([C@H](OC(C)(C)C)C(=O)O)c(N2CCC(C)(C)CC2)c1-c1ccc2c(c1)CCN(Cc1cccc(OC(F)F)c1)C2 [Compound 118, (S)-2-(tert-butoxy)-2-(5-(2-(3-(difluoromethoxy)benzyl)-1,2,3,4-tetrahydroisoquinolin-6-yl)-4-(4,4-dimethylpiperidin-1-yl)-2,6-dimethylpyridin-3-yl)acetic acid]
- pEC50: > 7.00

Compound: COc1ccc(C)cc1CN1CCc2cc(-c3c(C)nc(C)c([C@H](OC(C)(C)C)C(=O)O)c3N3CCC(C)(C)CC3)ccc2C1 [Compound 119, (S)-2-(tert-butoxy)-2-(4-(4,4-dimethylpiperidin-1-yl)-5-(2-(2-methoxy-5-methylbenzyl)-1,2,3,4-tetrahydroisoquinolin-6-yl)-2,6-dimethylpyridin-3-yl)acetic acid]
- pEC50: > 7.00

Compound: Cc1nc(C)c([C@H](OC(C)(C)C)C(=O)O)c(N2CCC(C)(C)CC2)c1-c1ccc2c(c1)CCN(Cc1ccc(F)c(OC(F)(F)F)c1)C2 [Compound 120, (S)-2-(tert-butoxy)-2-(4-(4,4-dimethylpiperidin-1-yl)-5-(2-(4-fluoro-3-(trifluoromethoxy)benzyl)-1,2,3,4-tetrahydroisoquinolin-6-yl)-2,6-dimethylpyridin-3-yl)acetic acid]
- pEC50: > 7.00

Compound: Cc1nc(C)c([C@H](OC(C)(C)C)C(=O)O)c(N2CCC(C)(C)CC2)c1-c1ccc2c(c1)CCN(Cc1cccc(OC(F)(F)C(F)F)c1)C2 [Compound 121, (S)-2-(tert-butoxy)-2-(4-(4,4-dimethylpiperidin-1-yl)-2,6-dimethyl-5-(2-(3-(1,1,2,2-tetrafluoroethoxy)benzyl)-1,2,3,4-tetrahydroisoquinolin-6-yl)pyridin-3-yl)acetic acid]
- pEC50: > 7.00

Compound: COc1cc(F)cc(CN2CCc3cc(-c4c(C)nc(C)c([C@H](OC(C)(C)C)C(=O)O)c4N4CCC(C)(C)CC4)ccc3C2)c1 [Compound 122, (S)-2-(tert-butoxy)-2-(4-(4,4-dimethylpiperidin-1-yl)-5-(2-(3-fluoro-5-methoxybenzyl)-1,2,3,4-tetrahydroisoquinolin-6-yl)-2,6-dimethylpyridin-3-yl)acetic acid]
- pEC50: > 7.00

Compound: Cc1nc(C)c([C@H](OC(C)(C)C)C(=O)O)c(N2CCC(C)(C)CC2)c1-c1ccc2c(c1)CCN(Cc1ccccc1OC(F)(F)F)C2 [Compound 123, (S)-2-(tert-butoxy)-2-(4-(4,4-dimethylpiperidin-1-yl)-2,6-dimethyl-5-(2-(2-(trifluoromethoxy)benzyl)-1,2,3,4-tetrahydroisoquinolin-6-yl)pyridin-3-yl)acetic acid]
- pEC50: > 7.00
- EC50: 0.011 µM

Compound: COc1ccc(F)cc1CN1CCc2cc(-c3c(C)nc(C)c([C@H](OC(C)(C)C)C(=O)O)c3N3CCC(C)(C)CC3)ccc2C1 [Compound 124, (S)-2-(tert-butoxy)-2-(4-(4,4-dimethylpiperidin-1-yl)-5-(2-(5-fluoro-2-methoxybenzyl)-1,2,3,4-tetrahydroisoquinolin-6-yl)-2,6-dimethylpyridin-3-yl)acetic acid]
- pEC50: > 7.00

Compound: Cc1nc(C)c([C@H](OC(C)(C)C)C(=O)O)c(N2CCC(C)(C)CC2)c1-c1ccc2c(c1)CCN(Cc1ccc(OC(F)(F)C(F)F)cc1)C2 [Compound 125, (S)-2-(tert-butoxy)-2-(4-(4,4-dimethylpiperidin-1-yl)-2,6-dimethyl-5-(2-(4-(1,1,2,2-tetrafluoroethoxy)benzyl)-1,2,3,4-tetrahydroisoquinolin-6-yl)pyridin-3-yl)acetic acid]
- pEC50: > 7.00
